Experimental data published in patent publication US20250353891A1 (MEDIMMUNE LIMITED, priority 2022, published 2025).
pEC50: −log10 of the molar value. Starred links: 1 amine or outer side, 2 acyl side, 3 side chain; linkers in the order of their positions; H or OH if unused. Non-standard residues stand in square brackets, D forms with d. Residues, ends and D or L forms follow the SMILES beside them. Groups on a side chain read outwards from the residue. *: point of attachment. Trp(1-Me) = Cn1cc(C[C@H](N)C(=O)O)c2ccccc21; Bip = N[C@@H](Cc1ccc(-c2ccccc2)cc1)C(=O)O; C18 diacid = O=C(O)CCCCCCCCCCCCCCCCC(=O)*; γGlu = O=C(O)[C@H](CCC(=O)[*:2])N[*:1]; αMeF = C[C@](N)(Cc1ccccc1)C(=O)O; AEEA = NCCOCCOCC(=O)O; Aib = CC(C)(N)C(=O)O

Assays:
[1] = target: human GLP-1 receptor (hGLP-1R) (Homo sapiens, UniProt P43220); test: cAMP production (HTRF) in CHO cells expressing hGLP-1R; type: cell-based; design: expressed in transfected cells; settings: for pEC50: Table 6, peptides modified at position 17, cAMP in CHO hGLP-1R cells, geometric mean, read-out: hGLP-1R EC50; for % Relative Potency Ratio: Table 6, % GLP-1R activity relative to GLP-1 / % GlucR activity relative to glucagon
Procedure, shortened: (§1)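 Read-out: HTRF cAMP (anti-cAMP cryptate donor, cAMP-d2 acceptor in conjugate/lysis buffer), converted to % Delta F and fitted by 4-parameter logistic for EC50. Cell densities were 1×10^5 cells/mL (hGLP-1R) or 2×10^5 cells/mL (hGCGR). Stimulation lasted 30 min at room temperature.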

[2] = target: human glucagon receptor (hGCGR) (Homo sapiens, UniProt P47871); test: cAMP production (HTRF) in CHO cells expressing hGCGR; type: cell-based; design: expressed in transfected cells; settings: Table 6, peptides modified at position 17; cAMP in CHO hGCGR cells; geometric mean; read-out: hGluc-R EC50
Procedure, shortened: as §1

Chain of human glucagon receptor (hGCGR) (P47871 26-477): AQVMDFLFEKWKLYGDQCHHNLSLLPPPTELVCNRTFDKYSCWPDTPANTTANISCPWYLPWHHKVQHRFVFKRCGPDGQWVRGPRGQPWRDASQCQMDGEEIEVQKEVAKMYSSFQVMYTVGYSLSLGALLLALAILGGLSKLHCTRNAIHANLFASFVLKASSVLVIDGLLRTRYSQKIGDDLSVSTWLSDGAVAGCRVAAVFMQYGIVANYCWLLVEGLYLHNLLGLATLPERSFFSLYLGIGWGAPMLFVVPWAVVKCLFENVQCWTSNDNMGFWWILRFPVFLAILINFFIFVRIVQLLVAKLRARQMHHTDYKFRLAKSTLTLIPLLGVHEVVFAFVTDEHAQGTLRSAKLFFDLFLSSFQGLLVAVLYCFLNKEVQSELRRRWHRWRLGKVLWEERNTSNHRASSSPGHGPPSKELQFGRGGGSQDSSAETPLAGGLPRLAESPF
Chain of human GLP-1 receptor (hGLP-1R) (P43220 24-463): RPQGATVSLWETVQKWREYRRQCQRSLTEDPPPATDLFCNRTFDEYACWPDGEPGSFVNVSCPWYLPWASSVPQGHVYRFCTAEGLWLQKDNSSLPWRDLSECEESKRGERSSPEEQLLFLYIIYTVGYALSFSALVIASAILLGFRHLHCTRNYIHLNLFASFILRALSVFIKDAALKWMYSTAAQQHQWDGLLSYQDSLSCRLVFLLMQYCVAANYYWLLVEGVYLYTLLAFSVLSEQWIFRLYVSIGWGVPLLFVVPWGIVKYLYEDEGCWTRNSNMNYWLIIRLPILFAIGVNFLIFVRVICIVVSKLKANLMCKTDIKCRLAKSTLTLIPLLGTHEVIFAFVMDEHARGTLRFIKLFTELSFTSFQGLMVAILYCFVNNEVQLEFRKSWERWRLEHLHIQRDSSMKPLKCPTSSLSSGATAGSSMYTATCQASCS

pEC50 [1] | % Relative Potency Ratio [1] | pEC50 [2] | SMILES
11.14 | 16.6 | 10.21 | CC(C)C[C@H](NC(=O)[C@H](Cc1c[nH]c2ccccc12)NC(=O)[C@H](CCCNC(=N)N)NC(=O)[C@@H](NC(=O)[C@H](Cc1ccccc1)NC(=O)[C@H](CC(=O)O)NC(=O)[C@H](CCC(N)=O)NC(=O)[C@H](C)NC(=O)[C@H](CCCNC(=N)N)NC(=O)[C@H](CCCCNC(=O)COCCOCCNC(=O)COCCOCCNC(=O)CC[C@H](NC(=O)CCCCCCCCCCCCCCCCC(=O)O)C(=O)O)NC(=O)[C@H](CCCCN)NC(=O)[C@H](CC(=O)O)NC(=O)[C@H](CC(C)C)NC(=O)[C@](C)(Cc1ccccc1)NC(=O)[C@H](CCCCN)NC(=O)[C@H](CO)NC(=O)[C@@H](NC(=O)[C@H](CC(=O)O)NC(=O)[C@H](CO)NC(=O)[C@@H](NC(=O)[C@H](Cc1ccccc1)NC(=O)[C@@H](NC(=O)CNC(=O)[C@H](CCC(N)=O)NC(=O)C(C)(C)NC(=O)[C@@H](N)Cc1c[nH]cn1)[C@@H](C)O)[C@@H](C)O)C(C)C)C(C)C)C(=O)N[C@@H](CC(C)C)C(=O)N[C@@H](CCCNC(=N)N)C(=O)NC(C)(C)C(=O)N[C@@H](CCCCN)C(=O)O [Peptide 426] (H-H[Aib]QGTFTSDVSK[αMeF]LDKK([AEEA-AEEA-γGlu-C18 diacid])RAQDFVRWLLR[Aib]K-OH; N-terminus assumed)
10.91 | 7.5 | 10.33 | CC(C)C[C@H](NC(=O)[C@H](Cc1c[nH]c2ccccc12)NC(=O)[C@H](CCC(N)=O)NC(=O)[C@@H](NC(=O)[C@H](Cc1ccccc1)NC(=O)[C@H](CC(=O)O)NC(=O)[C@H](CCCNC(=N)N)NC(=O)[C@H](C)NC(=O)[C@H](CCCNC(=N)N)NC(=O)[C@H](CCCCNC(=O)COCCOCCNC(=O)COCCOCCNC(=O)CC[C@H](NC(=O)CCCCCCCCCCCCCCCCC(=O)O)C(=O)O)NC(=O)[C@@H](NC(=O)[C@H](CC(=O)O)NC(=O)[C@H](CC(C)C)NC(=O)[C@](C)(Cc1ccccc1)NC(=O)[C@H](CCCCN)NC(=O)[C@H](CO)NC(=O)[C@@H](NC(=O)[C@H](CC(=O)O)NC(=O)[C@H](CO)NC(=O)[C@@H](NC(=O)[C@H](Cc1ccccc1)NC(=O)[C@@H](NC(=O)CNC(=O)[C@H](CCC(N)=O)NC(=O)C(C)(C)NC(=O)[C@@H](N)Cc1c[nH]cn1)[C@@H](C)O)[C@@H](C)O)C(C)C)[C@@H](C)O)C(C)C)C(=O)N[C@@H](CC(C)C)C(=O)N[C@@H](CCC(=O)O)C(=O)NC(C)(C)C(=O)NCC(N)=O [Peptide 427]
10.48 | 0.6 | 10.98 | CC(C)C[C@H](NC(=O)[C@H](Cc1c[nH]c2ccccc12)NC(=O)[C@H](CCC(N)=O)NC(=O)[C@@H](NC(=O)[C@H](Cc1ccccc1)NC(=O)[C@H](CC(=O)O)NC(=O)[C@H](CCCNC(=N)N)NC(=O)[C@H](C)NC(=O)[C@H](CCCNC(=N)N)NC(=O)[C@H](CCCCNC(=O)COCCOCCNC(=O)COCCOCCNC(=O)CC[C@H](NC(=O)CC[C@H](NC(=O)CCCCCCCCCCCCCCCCC(=O)O)C(=O)O)C(=O)O)NC(=O)[C@@H](NC(=O)[C@H](CC(=O)O)NC(=O)[C@H](CC(C)C)NC(=O)[C@](C)(Cc1ccccc1)NC(=O)[C@H](CCCCN)NC(=O)[C@H](CO)NC(=O)[C@@H](NC(=O)[C@H](CC(=O)O)NC(=O)[C@H](CO)NC(=O)[C@@H](NC(=O)[C@H](Cc1ccccc1)NC(=O)[C@@H](NC(=O)CNC(=O)[C@H](CCC(N)=O)NC(=O)C(C)(C)NC(=O)[C@@H](N)Cc1c[nH]cn1)[C@@H](C)O)[C@@H](C)O)C(C)C)[C@@H](C)O)C(C)C)C(=O)N[C@@H](CC(C)C)C(=O)N[C@@H](CCC(=O)O)C(=O)NC(C)(C)C(=O)NCC(N)=O [Peptide 428]
10.82 | 19.0 | 9.84 | CC(C)C[C@H](NC(=O)[C@H](Cc1c[nH]c2ccccc12)NC(=O)[C@H](CCCNC(=N)N)NC(=O)[C@@H](NC(=O)[C@H](Cc1ccccc1)NC(=O)[C@H](CC(=O)O)NC(=O)[C@H](CCC(N)=O)NC(=O)[C@H](C)NC(=O)[C@H](CCCNC(=N)N)NC(=O)[C@H](CCCCNC(=O)COCCOCCNC(=O)COCCOCCNC(=O)CC[C@H](NC(=O)CCCCCCCCCCCCCCCCC(=O)O)C(=O)O)NC(=O)[C@H](CO)NC(=O)[C@H](CC(=O)O)NC(=O)[C@H](CC(C)C)NC(=O)[C@](C)(Cc1ccccc1)NC(=O)[C@H](CCCCN)NC(=O)[C@H](CO)NC(=O)[C@@H](NC(=O)[C@H](CC(=O)O)NC(=O)[C@H](CO)NC(=O)[C@@H](NC(=O)[C@H](Cc1ccccc1)NC(=O)[C@@H](NC(=O)CNC(=O)[C@H](CCC(N)=O)NC(=O)C(C)(C)NC(=O)[C@@H](N)Cc1c[nH]cn1)[C@@H](C)O)[C@@H](C)O)C(C)C)C(C)C)C(=O)N[C@@H](CCC(=O)O)C(=O)N[C@@H](C)C(=O)NC(C)(C)C(=O)NCC(N)=O [Peptide 429] (H-H[Aib]QGTFTSDVSK[αMeF]LDSK([AEEA-AEEA-γGlu-C18 diacid])RAQDFVRWLEA[Aib]G-NH2; N-terminus assumed)
10.61 | 13.0 | 9.80 | CC(C)C[C@H](NC(=O)[C@H](Cc1c[nH]c2ccccc12)NC(=O)[C@H](CCCNC(=N)N)NC(=O)[C@@H](NC(=O)[C@H](Cc1ccccc1)NC(=O)[C@H](CC(=O)O)NC(=O)[C@H](CCC(N)=O)NC(=O)[C@H](C)NC(=O)[C@H](CCCNC(=N)N)NC(=O)[C@H](CCCCNC(=O)COCCOCCNC(=O)COCCOCCNC(=O)CC[C@H](NC(=O)CC[C@H](NC(=O)CCCCCCCCCCCCCCCCC(=O)O)C(=O)O)C(=O)O)NC(=O)[C@H](CO)NC(=O)[C@H](CC(=O)O)NC(=O)[C@H](CC(C)C)NC(=O)[C@](C)(Cc1ccccc1)NC(=O)[C@H](CCCCN)NC(=O)[C@H](CO)NC(=O)[C@@H](NC(=O)[C@H](CC(=O)O)NC(=O)[C@H](CO)NC(=O)[C@@H](NC(=O)[C@H](Cc1ccccc1)NC(=O)[C@@H](NC(=O)CNC(=O)[C@H](CCC(N)=O)NC(=O)C(C)(C)NC(=O)[C@@H](N)Cc1c[nH]cn1)[C@@H](C)O)[C@@H](C)O)C(C)C)C(C)C)C(=O)N[C@@H](CCC(=O)O)C(=O)N[C@@H](C)C(=O)NC(C)(C)C(=O)NCC(N)=O [Peptide 430] (H-H[Aib]QGTFTSDVSK[αMeF]LDSK([AEEA-AEEA-γGlu-γGlu-C18 diacid])RAQDFVRWLEA[Aib]G-NH2; N-terminus assumed)
10.35 | 8.6 | 9.71 | CC(C)C[C@H](NC(=O)[C@H](Cc1c[nH]c2ccccc12)NC(=O)[C@H](C)NC(=O)[C@@H](NC(=O)[C@H](Cc1ccccc1)NC(=O)[C@H](CC(=O)O)NC(=O)[C@H](CCC(N)=O)NC(=O)[C@H](C)NC(=O)[C@H](CCCNC(=N)N)NC(=O)[C@H](CCCCNC(=O)COCCOCCNC(=O)COCCOCCNC(=O)CC[C@H](NC(=O)CC[C@H](NC(=O)CCCCCCCCCCCCCCCCC(=O)O)C(=O)O)C(=O)O)NC(=O)[C@@H](NC(=O)[C@H](CC(=O)O)NC(=O)[C@H](CC(C)C)NC(=O)[C@](C)(Cc1ccccc1)NC(=O)[C@H](CCCCN)NC(=O)[C@H](CO)NC(=O)[C@@H](NC(=O)[C@H](CC(=O)O)NC(=O)[C@H](CO)NC(=O)[C@@H](NC(=O)[C@H](Cc1ccccc1)NC(=O)[C@@H](NC(=O)CNC(=O)[C@H](CCC(N)=O)NC(=O)C(C)(C)NC(=O)[C@@H](N)Cc1c[nH]cn1)[C@@H](C)O)[C@@H](C)O)C(C)C)[C@@H](C)O)C(C)C)C(=O)N[C@@H](CCC(=O)O)C(=O)N[C@@H](C)C(=O)NC(C)(C)C(=O)NCC(N)=O [Peptide 431] (H-H[Aib]QGTFTSDVSK[αMeF]LDTK([AEEA-AEEA-γGlu-γGlu-C18 diacid])RAQDFVAWLEA[Aib]G-NH2; N-terminus assumed)
8.86 | 1.7 | 8.93 | CC(C)C[C@H](NC(=O)[C@H](Cc1ccc(-c2ccccc2)cc1)NC(=O)[C@H](CCCNC(=N)N)NC(=O)[C@@H](NC(=O)[C@H](Cc1ccccc1)NC(=O)[C@H](CC(=O)O)NC(=O)[C@H](CCC(N)=O)NC(=O)[C@H](C)NC(=O)[C@H](CCCNC(=N)N)NC(=O)[C@H](CCCCNC(=O)COCCOCCNC(=O)COCCOCCNC(=O)CC[C@H](NC(=O)CCCCCCCCCCCCCCCCC(=O)O)C(=O)O)NC(=O)[C@H](CO)NC(=O)[C@H](CC(=O)O)NC(=O)[C@H](CC(C)C)NC(=O)[C@](C)(Cc1ccccc1)NC(=O)[C@H](CCCCN)NC(=O)[C@H](CO)NC(=O)[C@@H](NC(=O)[C@H](CC(=O)O)NC(=O)[C@H](CO)NC(=O)[C@@H](NC(=O)[C@H](Cc1ccccc1)NC(=O)[C@@H](NC(=O)CNC(=O)[C@H](CCC(N)=O)NC(=O)C(C)(C)NC(=O)[C@@H](N)Cc1c[nH]cn1)[C@@H](C)O)[C@@H](C)O)C(C)C)C(C)C)C(=O)N[C@@H](CC(C)C)C(=O)NC(C)(C)C(=O)N[C@@H](CCC(=O)O)C(=O)O [Peptide 432] (H-H[Aib]QGTFTSDVSK[αMeF]LDSK([AEEA-AEEA-γGlu-C18 diacid])RAQDFVR[Bip]LL[Aib]E-OH)
8.35 | 4.6 | 7.98 | CC(C)C[C@H](NC(=O)[C@H](Cc1cn(C)c2ccccc12)NC(=O)[C@H](CCCNC(=N)N)NC(=O)[C@@H](NC(=O)[C@H](Cc1ccccc1)NC(=O)[C@H](CC(=O)O)NC(=O)[C@H](CCC(N)=O)NC(=O)[C@H](C)NC(=O)[C@H](CCCNC(=N)N)NC(=O)[C@H](CCCCNC(=O)COCCOCCNC(=O)COCCOCCNC(=O)CC[C@H](NC(=O)CCCCCCCCCCCCCCCCC(=O)O)C(=O)O)NC(=O)[C@H](CO)NC(=O)[C@H](CC(=O)O)NC(=O)[C@H](CC(C)C)NC(=O)[C@](C)(Cc1ccccc1)NC(=O)[C@H](CCCCN)NC(=O)[C@H](CO)NC(=O)[C@@H](NC(=O)[C@H](CC(=O)O)NC(=O)[C@H](CO)NC(=O)[C@@H](NC(=O)[C@H](Cc1ccccc1)NC(=O)[C@@H](NC(=O)CNC(=O)[C@H](CCC(N)=O)NC(=O)C(C)(C)NC(=O)[C@@H](N)Cc1c[nH]cn1)[C@@H](C)O)[C@@H](C)O)C(C)C)C(C)C)C(=O)N[C@@H](CC(C)C)C(=O)NC(C)(C)C(=O)N[C@@H](CCC(=O)O)C(=O)O [Peptide 433] (H-H[Aib]QGTFTSDVSK[αMeF]LDSK([AEEA-AEEA-γGlu-C18 diacid])RAQDFVR[Trp(1-Me)]LL[Aib]E-OH; N-terminus assumed)
